Patent US20250057909A1, “NOVEL USE OF ALANYL-GLUTAMINE AND OPHTHALMIC COMPOSITION COMPRISING ALANYL-GLUTAMINE” (SEINDA PHARMACEUTICAL GUANGZHOU CORPORATION, priority 2021, published 2025)
Marks after values point to notes of the source that are not given here.

Legend:
corneal cells = assay: Vitro model of corneal ulcer: growth of corneal cells in culture in vitro; format: cell-based, ICR mice; details: cornea of immunised mice co-cultured with autologous leukocytes
Experimental: The rabbit corneas were taken and cut into pieces, 5-10 times volume of 5% triton solution was added and homogenized until there were no lumpy particles, then centrifuged at 3000 r/min for 10 min, and the supernatant was taken. 5 ml of the supernatant was taken and mixed with 5 ml of complete Freund's adjuvant to prepare a mixed solution for later use.
SPF grade ICR mice were divided into normal group, immune group, and cyclophosphamide group, 10 mice/group. The normal group received subcutaneous injection of 0.5 ml of physiological saline per mouse; Each mouse in the immune group and cyclophosphamide group was subcutaneously injected with the mixed solution+physiological saline, the mixed solution+cyclophosphamide 300 mg/kg respectively, and the injection sites were not overlapped; Injection was performed once every other day for a total of 10 times. 3 days after the last injection, the mice were euthanized using the bloodletting method, and the eyeballs were removed and cut into pieces under sterile conditions. At the same time, the cornea and the leukocytes separated from autologous blood were co-cultured in a 24-well culture plate.

guinea pig skin = assay: Skin allergy test
[1] = 1 h after challenge and drug removal
[2] = 24 h after challenge and drug removal
[3] = 48 h after challenge and drug removal

O=P1(N(CCCl)CCCl)NCCCO1 (stereo not shown) [cyclophosphamide]
Growth of corneal cells in culture in vitro, Number (corneal cells; Grow time 72 h): 8 | Growth of corneal cells in culture in vitro, Percentage % (growth rate) (corneal cells; Grow time 72 h): 16.0** % | Growth of corneal cells in culture in vitro, Number (corneal cells; Grow time 120 h): 11 | Growth of corneal cells in culture in vitro, Percentage % (growth rate) (corneal cells; Grow time 120 h): 22.0** %

O=[N+]([O-])c1ccc(Cl)c([N+](=O)[O-])c1 [2,4-dinitrochlorobenzene]
Average score (guinea pig skin; [1]): 2.2 | Number of allergic animals (guinea pig skin; [1]): 10 | Total score (guinea pig skin; [1]): 22 | Average score (guinea pig skin; [2]): 1.7 | Number of allergic animals (guinea pig skin; [2]): 10 | Total score (guinea pig skin; [2]): 17 | Average score (guinea pig skin; [3]): 1.0 | Number of allergic animals (guinea pig skin; [3]): 10 | Total score (guinea pig skin; [3]): 10
